Measurements as given in paper PMC5867624, “Molecular Characterization of a Novel N-Acetylneuraminate Lyase from a Deep-Sea Symbiotic Mycoplasma” (Marine Drugs, 2018).

Tests used:
CC(=O)C(=O)O = test: purified protein; conditions: synthesis direction, 20 mM ManNAc fixed, 20 mM phosphate pH 7.0, optimal temperature (65 °C)
MyNal [1] = target: T1, MyNal (Mycoplasma sp., UniProt A0A2P1G7E2); test: HPLC of Neu5Ac formed, synthesis; parameters: gene nanA; conditions: synthesis direction; 20 mM pyruvate fixed; 20 mM phosphate pH 7.0; optimal temperature (65 °C)
MyNal [2] = target: T1, MyNal; test: LDH/NADH coupled spectrophotometric assay, […] nm, cleavage; format: biochemical; parameters: gene nanA; full-length gene (885 bp) in pET-32a(+), fusion tags kept, about 52 kDa, E. coli BL21(DE3), Ni-NTA; conditions: cleavage direction; 20 mM phosphate pH 7.0; optimal temperature and pH (optimum 70 °C)

T1 sequence (A0A2P1G7E2 1-294): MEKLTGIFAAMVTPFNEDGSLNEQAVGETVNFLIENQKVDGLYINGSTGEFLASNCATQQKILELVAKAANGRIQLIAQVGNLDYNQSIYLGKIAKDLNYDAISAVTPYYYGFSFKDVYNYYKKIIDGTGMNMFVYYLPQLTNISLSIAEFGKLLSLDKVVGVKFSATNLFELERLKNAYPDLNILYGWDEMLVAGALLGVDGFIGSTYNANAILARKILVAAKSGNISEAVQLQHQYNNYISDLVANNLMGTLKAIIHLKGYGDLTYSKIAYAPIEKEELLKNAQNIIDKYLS

Question: MyNal (Mycoplasma sp.) was tested. Which Km (CC(=O)C(=O)O) did it give?
Answer: 5.9 ± 0.9 mM

Question: How did the Km (MyNal [1]) turn out when `CC(=O)N[C@@H]1C(O)O[C@H](CO)[C@@H](O)[C@@H]1O` (stereo partly drawn) [ManNAc] was run?
Answer: 6.9 ± 0.5 mM

Question: For `CC(=O)N[C@H]1[C@H]([C@H](O)[C@H](O)CO)OC(O)(C(=O)O)C[C@@H]1O` (stereo partly drawn) [Neu5Ac], which Km (MyNal [2]) is on record?
Answer: 1.8 ± 0.2 mM
